# Assay results as given in patent US20170014468A1, “METHODS OF USE FOR THERAPEUTICS TARGETING THE PATHOGEN PORPHYROMONAS GINGIVALIS” (Cortexyme, Inc., priority 2014, published 2017).
# “Also recorded” adds a separate entry of the source.
# Tests used:
# [1] = tested on: differentiated SH-SY5Y neuronal cells exposed to Kgp and/or RgpB; assay: gingipain induced toxicity in differentiated SH-SY5Y neuronal cells; assay type: cell-based; settings: 100 nM Kgp and/or RgpB, 24 hours, microscopy
# Procedure: SH-SY5Y neuroblastoma cells were cultured and differentiated in the presence of 5 uM retinoic acid based on established methods. Differentiation into neuronal cells was verified by observation of neurite outgrowth. The differentiated cells were exposed to 100 nM Kgp and/or RgpB for 24 hours, in the presence or absence of gingipain inhibitors. Results were recorded using a digital microscope camera.
# [2] = tested on: P. gingivalis; settings: cited from earlier work
# [3] = tested on: Rgp; settings: cited from earlier work
Compound,protection against gingipain induced toxicity / cell death [1],growth inhibition of P. gingivalis [2],also measured
CN(C)C(=O)[C@H](CCCCN)NC(=O)C(=O)[C@H](CCCN=C(N)N)NC(=O)[C@H](CCCCN)NC(=O)OCc1ccccc1 [Kyt-1],can protect neurons; also recorded: effective but less so,,
CN(NC(=O)CC[C@H](NC(=O)OCc1ccccc1)C(=O)N[C@@H](CCCCN)C(=O)C(=O)NCc1ccccc1)c1ccccc1 [Kyt-36],can protect neurons; also recorded: more protective than Rgp inhibitors; also recorded: largely blocks gingipain induced toxicity,,protection against gingipain induced toxicity / cell death ([1]; listed as Kyt 36): prevented gingipain induced neurodegeneration
CC(C)C[C@H](NC(=O)[C@@H](O)[C@H](N)Cc1ccccc1)C(=O)O [bestatin],,selectively inhibits growth,
NC(=O)CI [iodoacetamide],blocks toxicity,,protection against gingipain induced toxicity / cell death ([1]; listed as Iodoacetamide): prevents this effect
phenylalanyl-ureido-citrullinyl-valyl-cycloarginal [FA-70C1],,exhibits growth-inhibitory activity,Rgp inhibition [3]: potent Rgp inhibitor
